Experimental findings from patent US12280090B2, “Antimicrobial peptides” (priority 2018, dated 2025) are described below.

What is called MIC is the least concentration at which growth counts as inhibited. Low values mean a more susceptible organism, high ones a less susceptible organism. What is called MBC is the smallest concentration meeting the test's criterion for killing.

Holding throughout (assay type): cell-based
The subject of experiment [1] is Escherichia coli—ATCC 25922 “wild type”. The procedure: (§1) Independent experiments were conducted with four strains of E. coli, including ATCC E. coli (Escherichia coli—ATCC 25922 “wild type”); ESBL E. coli (Escherichia coli—Extended spectrum beta-lactamase); CPO E. coli (KPC) (Escherichia coli—Carbapenemase-producing organism; Klebsiella pneumoniae carbapenemase); and CPO E. coli (NDM) (Escherichia coli—Carbapenemase-producing organism; New-Dehli Metallobetalactamase).
(§2) The ATCC (American Type Culture Collection) strains received from Cedarlane. Multi drug resistant (MDR) strains, as clinical isolates, were received from the laboratory of Dr. Linda Hoang.
(§3) Putative antimicrobial peptides were synthesized by GeneScript. A-list antimicrobial peptides re-synthesized by GeneScript. P2_CCH, P5_CCH, and P5_CCH_A19K were each synthesized under two conditions: standard synthesis using TFA, and the other with TFA-removal using acetate as a counter-ion. A MIC method, adapted for use with cationic antimicrobial peptides, was used to evaluate MIC antimicrobial activity (Hancock 1999).
(§4) The following data are presented to show the activity (MIC/MBC in μg/mL) of certain antimicrobial peptides described herein relative to a modified/synthetic version having a specified substitution. While data presented in tables above may be presented again, or may be represented in data provided in the tables below, such duplication is believed to assist the reader in readily noting comparisons. Different Run Numbers noted in the following tables denotes experiments conducted on different days, with each run reflecting multiple n values.

Experiment [2] deals with Escherichia coli—Carbapenemase-producing organism; New-Dehli Metallobetalactamase. The procedure:
as §1, §2, §3, §4

In experiment [3] the test system is Escherichia coli—Carbapenemase-producing organism; Klebsiella pneumoniae carbapenemase. The procedure: as §1, §2, §3, §4
Experiment [4] concerns Escherichia coli—Extended spectrum beta-lactamase. As to the method:
as §1, §2, §3, §4

Experiment [5] relates to Salmonella Heidelberg (MDR).
From the text: as §2, §3, §4

For experiment [6], the system named is Escherichia coli: ATCC 9723H. To be noted: ATCC 9723. As to the method: (§5) Microtiter broth dilution assays. HP2, HP3, and HP5 peptides are comprised of novel sequences that have not yet been described in the AMP literature. A common method for establishing antimicrobial activity of peptides is to perform microtiter broth assays. Microtiter broth dilution methods were implemented for determination of the minimum inhibitory concentration (MIC) and minimum bactericidal concentration (MBC). HP3 and HP5 were tested in addition to Ranatuerin-1/HP4 peptide as a positive control. HP2 could not be tested because multiple peptide synthesis attempts failed. The human cathelicidin, LL-37^30 was used as an additional positive control, and an unrelated similarly sized cationic peptide from the T. pallidum protein Tp0751 was used as a negative control. The potential AMPs were tested against bacteria representative of all three types of known cell envelope (Gram-positive, negative, and the complex and unique mycobacterial cell wall/envelope), given that a major mechanism used by AMPs is cell wall/membrane targeting.
(§6) Microtiter broth dilution assays. To test for antimicrobial activity, HP3, HP4/Ranatuerin-1, and HP5, peptides were synthesized by GenScript (Piscataway, New Jersey, USA). HP2 was not tested because the service provider was unable to synthesize this peptide despite multiple attempts. An unrelated, similarly-sized peptide from the Treponema pallidum protein Tp0751^55 was used as a negative control and the human cathelicidin, LL-37^30, was included as a positive control. Peptides were dissolved in filter-sterilized ultrapure water and tested for sterility by plating on non-selective agar plates followed by a 48 h incubation at 37° C. Two-fold serial dilutions of each peptide were prepared to obtain a series corresponding to ten times the required testing concentrations (2560, 1280, 640, 320, 160, 80, 40, 20, 10, and 5 μg/mL)^29.
(§7) Microtiter broth dilution methods were implemented for determination of the minimum inhibitory concentration (MIC) and minimum bactericidal concentration (MBC) of the four putative AMPs and the negative control peptide using procedures adapted from the R.E.W. Hancock Laboratory for cationic AMPs^29 and the CLSI methods for dilution antimicrobial susceptibility tests^56.
(§8) To assess antimicrobial activity across a diverse range of bacterial species, colonies were cultured overnight on Mueller Hinton agar plates (MHA; +5% sheep blood for S. pyogenes)^56 from frozen glycerol stock. Bacteria tested include Gram-negative rods (Escherichia coli: ATCC 9723H; Pseudomonas aeruginosa: ATCC 10148), Gram-positive cocci (Staphylococcus aureus: ATCC 6538P; Streptococcus pyogenes: unknown strain, hospital isolate), and Mycobacterium smegmatis (MC^2155; classified as neither Gram-positive nor Gram-negative). Bacterial suspensions were prepared by placing 3-5 morphologically similar colonies from the grown plate into sterile glass culture tubes containing 2 mL of Mueller Hinton Broth (MHB; +5% lysed horse blood for S. pyogenes) 56. Microbial inoculums from bacterial suspensions were prepared through a spectrophotometric adjustment of turbidity to 0.08-0.1 at 600 nm to achieve a turbidity equivalent to that of a 0.5 McFarland standard (1-2×10^8 CFU/mL)^29. The standardized bacterial inoculums were then diluted in MHB to obtain final cell densities of approximately […].
(§9) Ninety-six-well microtiter plates (Fisher Cat. No. CS003790; Nepean, Ontario, Canada) were prepared with 100 μL of E. coli, P. aeruginosa, S. aureus, S. pyogenes, or M. smegmatis bacterial suspension (5×10^5 CFU/mL) dispensed into each well of columns 1 through 11. Eleven microliters of the 10×AMP dilution series for all four peptides were added to each well from column 1 (2560 μg/mL) to column 10 (5 μg/mL) in all plates. Column 11 functioned as a positive control for bacterial growth in the absence of AMPs. Column 12 in each plate contained 100 μL of MHB as a sterility control (+5% lysed horse blood for S. pyogenes)^56. […]

In experiment [7] the test system is Streptococcus pyogenes: unknown strain, hospital isolate. The settings on record: unknown strain, hospital isolate. The procedure:
as §5, §6, §7, §8, §9

The test system of experiment [8] is Staphylococcus aureus: ATCC 6538P. To be noted: ATCC 6538. The procedure:
as §5, §6, §7, §8, §9

Experiment [9] has as its system Mycobacterium smegmatis (MC^2155). To be noted: Mycobacterium (MC^2155). As to the method: as §5, §6, §7, §8, §9
Experiment [10] relates to Pseudomonas aeruginosa: ATCC 10148. To be noted: ATCC 10148. The procedure:
as §5, §6, §7, §8, §9

Values after ≈ are worked out from the molar mass of the structure shown. Read-outs that look alike come from different tables or passages of the source. Ends that are not written are not given here. Peptide text beside a SMILES is read from it.

`CC(C)C[C@H](NC(=O)[C@H](CS)NC(=O)[C@@H]1CCCN1C(=O)[C@H](CCCCN)NC(=O)[C@H](CCCNC(=N)N)NC(=O)[C@@H]1CCCN1C(=O)[C@H](Cc1ccccc1)NC(=O)[C@H](CO)NC(=O)[C@H](CCCCN)NC(=O)[C@@H](NC(=O)[C@H](Cc1c[nH]c2ccccc12)NC(=O)[C@H](CS)NC(=O)CNC(=O)[C@H](CCCNC(=N)N)NC(=O)[C@H](CC(C)C)NC(=O)[C@@H](N)CO)[C@@H](C)O)C(=O)N[C@@H](CCCNC(=N)N)C(=O)N[C@@H](CC(N)=O)C(=O)N[C@@H](CCCNC(=N)N)C(=O)O` [HP3_S3R] (H-SLRGCWTKSFPRKPCLRNR-OH; N-terminus and C-terminus assumed): the results for the MIC in experiment [1], in experiment [2] and in [3] were 128 µg/mL (≈ 55.5 µM), 128 µg/mL (≈ 55.5 µM) and 256 µg/mL (≈ 111 µM), respectively. The molecule further gave a minimum bactericidal concentration (MBC) in experiment [3] of 256 µg/mL (≈ 111 µM).
`CC[C@H](C)[C@H](NC(=O)CNC(=O)[C@@H](NC(=O)[C@@H](NC(=O)[C@H](CCCCN)NC(=O)CNC(=O)[C@@H](NC(=O)[C@H](CCCCN)NC(=O)[C@H](CCCCN)NC(=O)[C@@H](NC(=O)[C@@H](NC(=O)[C@H](CC(=O)O)NC(=O)[C@H](CC(C)C)NC(=O)[C@H](CC(C)C)NC(=O)CN)[C@@H](C)CC)[C@@H](C)CC)[C@@H](C)O)[C@@H](C)O)[C@@H](C)O)C(=O)N[C@@H](CC(C)C)C(=O)N[C@@H](CCSC)C(=O)N[C@@H](CC(=O)O)C(=O)N[C@H](C(=O)N[C@@H](CC(C)C)C(=O)N[C@@H](CCCCN)C(=O)N[C@@H](CS)C(=O)N[C@@H](CS)C(=O)N[C@@H](CCSC)C(=O)N[C@H](C(=O)NCC(=O)N[C@@H](CCCNC(=N)N)C(=O)N[C@@H](CS)C(=O)N1CCC[C@H]1C(=O)N1CCC[C@H]1C(=O)N[C@@H](CO)C(=O)N[C@@H](CO)C(=O)O)[C@@H](C)O)[C@@H](C)O` [P3_CCH_D8K_Q23C] (H-GLLDIIKKTGKTTGILMDTLKCCMTGRCPPSS-OH; N-terminus and C-terminus assumed): the “Minimum Inhibitory Concentration (MIC)” value in [4] is 64 µg/mL; in experiment [1] it was 64 µg/mL; in experiment [2] (CPO E. coli NDM, Gram negative), 128+ ug/mL; in [3], 64 to 128 µg/mL. Further, the minimal bactericidal concentration (MBC) in [1] was found to be 64 µg/mL (≈ 18.9 µM); in [2], 128 µg/mL (≈ 37.8 µM). For the same molecule, the MIC in experiment [1] turned out to be 64 µg/mL (≈ 18.9 µM); in [2] it was 128 µg/mL (≈ 37.8 µM); in [5] it was 256 µg/mL (≈ 75.7 µM).
As to `CC[C@H](C)[C@H](NC(=O)[C@H](CCCCN)NC(=O)[C@@H](NC(=O)[C@H](C)NC(=O)[C@H](Cc1ccccc1)NC(=O)[C@H](CC(=O)O)NC(=O)[C@H](CCCCN)NC(=O)CNC(=O)[C@@H](NC(=O)[C@@H](NC(=O)[C@H](CCCCN)NC(=O)[C@@H](NC(=O)[C@@H](NC(=O)[C@H](CC(=O)O)NC(=O)[C@H](CC(C)C)NC(=O)[C@H](CC(C)C)NC(=O)CN)[C@@H](C)CC)[C@@H](C)CC)[C@@H](C)O)[C@@H](C)O)C(C)C)C(=O)N[C@@H](CC(C)C)C(=O)N[C@@H](CC(=O)O)C(=O)N[C@@H](CC(N)=O)C(=O)N[C@@H](CC(C)C)C(=O)N[C@@H](CCCCN)C(=O)N[C@@H](CS)C(=O)N[C@@H](CCCCN)C(=O)N[C@@H](CC(C)C)C(=O)N[C@@H](C)C(=O)NCC(=O)NCC(=O)N[C@@H](CS)C(=O)N1CCC[C@H]1C(=O)N1CCC[C@H]1C(=O)O` [Peptide P4_CCH] (H-GLLDIIKTTGKDFAVKILDNLKCKLAGGCPP-OH; N-terminus and C-terminus assumed), the “Minimum Inhibitory Concentration (MIC)” value in [4] was 64 µg/mL; in experiment [1], 32 to 64 µg/mL; in [2], 64 to 128 µg/mL; in experiment [3] it was 32 µg/mL. The MBC in [3] was 64 µg/mL (≈ 19.7 µM); in experiment [6] it was 128 µg/mL (≈ 39.5 µM); in [7], 256 µg/mL (≈ 78.9 µM); in experiment [8], over 256 µg/mL; in [9], over 256 µg/mL; in experiment [10], over 256 µg/mL. The MIC in [3] was 32 µg/mL (≈ 9.87 µM); in [6], 128 µg/mL (≈ 39.5 µM); in experiment [7], 256 µg/mL (≈ 78.9 µM); in experiment [8] it was over 256 µg/mL; in experiment [9], 8 µg/mL (≈ 2.47 µM); in [10] it was over 256 µg/mL. This molecule came in with an MIC in [5] of 256 µg/mL (≈ 78.9 µM).
On to `CC[C@H](C)[C@H](NC(=O)[C@H](C)NC(=O)[C@@H]1CCCN1C(=O)[C@@H](N)Cc1ccccc1)C(=O)N[C@H](C(=O)N[C@@H](CS)C(=O)N[C@@H](CCCCN)C(=O)N[C@H](C(=O)N[C@@H](CO)C(=O)N[C@@H](CCCCN)C(=O)N[C@@H](CCCCN)C(=O)N[C@@H](CS)C(=O)O)C(C)C)[C@@H](C)CC` [Peptide P8_CCH_N11K, FPAIICKVSKKC] (H-FPAIICKVSKKC-OH; N-terminus and C-terminus assumed), for which the MBC in [4] and in experiment [2] was 128 µg/mL (≈ 95.8 µM) each time. The MIC in experiment [4] and in [2] was 128 µg/mL (≈ 95.8 µM) each time.
With “ATAWRIPPPGMQPIIPIRIRPLCGKQ [Peptide P7_CCH]”, the MIC in experiment [2] was 256 µg/mL; in [6], over 256 µg/mL; in experiment [7], over 256 µg/mL; in experiment [8] it was over 256 µg/mL; in [9] it was 32 µg/mL; in experiment [10] it was over 256 µg/mL. Besides, the MBC in experiment [6], in experiment [7], in experiment [8], in experiment [9] and in experiment [10] was over 256 µg/mL in each case.
